Experimental data reported in patent US6770661B2, “Aryl substituted pyridines and their use” (Euro-Celtique S.A., priority 2001, dated 2004).

Target: rBIIa/beta 1 sodium channels expressed in Xenopus oocytes (Rattus norvegicus, UniProt P04775)
Experiment: Electrophysiological in vitro assay, two-electrode voltage clamp, sodium channel blockade
Format: cell-based
Conditions: apparent inhibition constant for the inactivated state, from single point inhibition data; holding potential −120 mV, 4 second depolarization; read-out: RBIIA/β1 Ki
Procedure: Electrophysiological Assay:
Electrophysiological Assay was used to measure potencies of compounds of the present invention rBIIa/beta 1 sodium channels expressed in Xenopus oocytes.
Preparation of cRNA encoding cloned rat brain type IIa (rBIIa) and beta 1 (β1): cDNA clones encoding the rat brain beta 1 subunit were cloned in house using standard methods, and mRNA were prepared by standard methods. mRNA encoding rBIIa was provided by Dr. A. Golden (UC Irvine). The mRNAs were diluted and stored at −80° C. in 1 μL aliquots until injection. […]
Electrophysiology: Membrane current responses were recorded in frog Ringer solution containing 115 mM NaCl, 2 mM KCl, 1.8 mM CaCl2, 5 mM HEPES, pH 7.4. […]
Voltage protocols for evoking sodium channel currents: The standard holding potential for whole oocyte clamp was −120 mV. […] Peak currents were measured as the maximum negative current after depolarizing voltage steps. […]
The purpose was to find compounds that are state dependent modifiers of neuronal sodium channels. […] Sodium currents were measured at this test pulse before and after the application of the tested compound. Data was acquired using pClamp 8.0 software and analyzed with clampfit software (Axon instruments). […]

rBIIa/beta 1 sodium channels expressed in Xenopus oocytes, sequence (P04775 whole entry): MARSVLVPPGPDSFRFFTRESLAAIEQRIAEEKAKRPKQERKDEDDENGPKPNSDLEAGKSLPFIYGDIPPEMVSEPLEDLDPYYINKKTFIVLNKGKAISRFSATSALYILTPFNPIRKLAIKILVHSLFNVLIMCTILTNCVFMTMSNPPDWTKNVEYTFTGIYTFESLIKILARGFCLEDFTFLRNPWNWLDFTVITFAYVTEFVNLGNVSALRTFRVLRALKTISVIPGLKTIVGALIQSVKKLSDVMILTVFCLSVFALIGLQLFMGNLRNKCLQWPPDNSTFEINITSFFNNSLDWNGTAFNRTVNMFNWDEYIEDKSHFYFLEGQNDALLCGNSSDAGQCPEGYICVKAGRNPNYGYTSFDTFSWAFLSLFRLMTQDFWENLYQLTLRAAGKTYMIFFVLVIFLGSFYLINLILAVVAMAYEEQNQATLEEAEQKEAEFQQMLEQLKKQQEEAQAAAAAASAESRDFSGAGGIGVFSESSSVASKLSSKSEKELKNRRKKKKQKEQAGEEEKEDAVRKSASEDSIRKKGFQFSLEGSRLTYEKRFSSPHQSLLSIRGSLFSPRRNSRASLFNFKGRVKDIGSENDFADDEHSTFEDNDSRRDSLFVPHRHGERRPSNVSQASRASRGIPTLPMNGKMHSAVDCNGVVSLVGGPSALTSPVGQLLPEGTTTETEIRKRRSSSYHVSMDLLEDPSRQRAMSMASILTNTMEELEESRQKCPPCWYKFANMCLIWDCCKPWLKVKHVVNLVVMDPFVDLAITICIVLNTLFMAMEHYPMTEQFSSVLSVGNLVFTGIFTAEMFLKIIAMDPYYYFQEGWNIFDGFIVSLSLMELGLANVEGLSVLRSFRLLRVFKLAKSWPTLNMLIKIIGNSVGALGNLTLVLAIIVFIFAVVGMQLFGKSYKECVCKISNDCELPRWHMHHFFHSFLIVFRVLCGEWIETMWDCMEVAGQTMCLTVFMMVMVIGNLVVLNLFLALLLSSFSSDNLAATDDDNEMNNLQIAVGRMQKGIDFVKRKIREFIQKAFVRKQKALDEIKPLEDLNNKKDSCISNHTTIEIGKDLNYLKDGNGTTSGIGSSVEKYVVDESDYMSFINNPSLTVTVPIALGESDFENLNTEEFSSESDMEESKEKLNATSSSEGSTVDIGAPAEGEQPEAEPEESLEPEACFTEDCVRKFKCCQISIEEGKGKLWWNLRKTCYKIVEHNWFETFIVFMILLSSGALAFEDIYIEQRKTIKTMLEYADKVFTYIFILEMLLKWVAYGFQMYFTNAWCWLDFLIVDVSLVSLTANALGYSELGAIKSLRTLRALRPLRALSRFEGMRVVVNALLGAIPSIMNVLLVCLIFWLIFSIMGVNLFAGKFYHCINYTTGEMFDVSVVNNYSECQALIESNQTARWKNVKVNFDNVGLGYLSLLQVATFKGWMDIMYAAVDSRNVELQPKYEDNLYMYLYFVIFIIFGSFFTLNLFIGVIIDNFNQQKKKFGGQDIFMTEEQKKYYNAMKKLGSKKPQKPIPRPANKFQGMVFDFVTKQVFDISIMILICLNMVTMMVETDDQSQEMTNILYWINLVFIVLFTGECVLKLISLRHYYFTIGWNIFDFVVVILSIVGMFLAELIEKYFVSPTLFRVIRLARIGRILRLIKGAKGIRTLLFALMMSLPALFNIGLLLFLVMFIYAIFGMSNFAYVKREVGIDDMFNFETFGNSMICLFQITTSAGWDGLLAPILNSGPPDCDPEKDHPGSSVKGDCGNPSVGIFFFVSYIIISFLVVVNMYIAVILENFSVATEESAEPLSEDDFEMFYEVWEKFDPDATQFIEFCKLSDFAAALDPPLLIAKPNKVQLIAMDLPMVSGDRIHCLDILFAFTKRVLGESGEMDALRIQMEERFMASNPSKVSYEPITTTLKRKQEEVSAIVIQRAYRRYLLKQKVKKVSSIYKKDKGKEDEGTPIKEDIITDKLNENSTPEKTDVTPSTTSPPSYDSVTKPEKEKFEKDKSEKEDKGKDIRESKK
rBIIa/beta 1 sodium channels expressed in Xenopus oocytes, sequence (Q00954 19-218 partner): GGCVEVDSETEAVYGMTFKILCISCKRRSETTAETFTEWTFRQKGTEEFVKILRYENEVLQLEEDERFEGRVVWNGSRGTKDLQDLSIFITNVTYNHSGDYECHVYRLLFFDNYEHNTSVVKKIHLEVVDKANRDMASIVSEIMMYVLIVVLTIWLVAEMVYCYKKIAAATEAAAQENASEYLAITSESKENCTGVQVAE

| Compound | Ki [nM] |
| --- | --- |
| NC(=O)c1cc(N2CCOCC2)cc(-c2ccc(Oc3ccc(F)cc3)cc2)n1 [2-[4-(4-Fluorophenoxy)phenyl]-4-N-morpholinylpyridine-6-carboxamide] | 290 |
| Cc1cc(OCCN2CCCCC2)cc(-c2ccc(Oc3ccc(F)cc3)cc2)n1 [2-[4-(4-Fluorophenoxy)phenyl]-6-methyl-4-[2-(N-piperidinyl)ethoxy]-pyridine] | 180 |
